Literature values in patent US7160580B2, “Organic acids incorporated edible antimicrobial films” (The Board of Trustees for the University of Arkansas, priority 2002, dated 2007).
Values joined by “and” are separate entries in the source; they are usually repeats but may differ in a detail not shown here. Equal entries are not always repeated.

Tests used:
Salmonella montevideo = conditions: citric acid 0.2 and 0.4% in cellulose based edible film; surface or core tissue of tomatoes; assignment of the two values not stated
Listeria monocytogens [1] = conditions: 2% acid rinsed catfish fillets stored at 4° C., up to 5 days
Listeria monocytogens [2] = conditions: lean beef tissue treated with 1.7% lactic acid, stored at 5° C. for 7 days
E. coli 0157:H7 = conditions: lean beef tissue treated with 1.7% lactic acid, stored at 5° C. for 7 days

| Structure (SMILES) | log reductions of Salmonella montevideo (Salmonella montevideo) | log reduction in Listeria monocytogens counts (Listeria monocytogens [1]) | log reduction Listeria monocytogens (Listeria monocytogens [2]) | log reduction E. coli 0157:H7 (E. coli 0157:H7) |
| --- | --- | --- | --- | --- |
| O=C(O)CC(O)(CC(=O)O)C(=O)O [citric acid] | 2.18 log and 1.92 log | less than one log reduction |  |  |
| CC(O)C(=O)O (centres unmarked) [lactic acid] |  | less than one log reduction | 2.03 log | 0.91 log |
| O=C(O)C(O)C(O)C(=O)O (centres unmarked) [tartaric acid] |  | less than one log reduction |  |  |
| O=C(O)CC(O)C(=O)O (centres unmarked) [malic acid] |  | less than one log reduction |  |  |
| Cl [hydrochloric acid] |  | less than one log reduction |  |  |
